The values below come from article PMC5970127, “In vivo evaluation of two tissue transglutaminase PET tracers in an orthotopic tumour xenograft model” (EJNMMI Research, 2018).

Where “and” joins values, the source holds several entries; their conditions need not be identical. Identical values can stand only once. Like-named read-outs stand apart in the source and are kept apart here.

For data set [1], the system named is TG2. More on the design: method as in PMID 24152195. Particulars: cited from earlier work.
Data set [2] has as its target TG2. More on the design: method as in PMID 17149878. Particulars: cited from earlier work.
For data set [3], the system named is MDA-MB-231 tumour. Put plainly: Dynamic PET imaging in orthotopic MDA-MB-231 tumour xenograft model. It counts as in vivo, SCID mice. How it is done: Severe combined immunodeficient (SCID) female mice (6–8 weeks, 20 to 25 g, Charles River, Wilmington, MA, USA) were housed in sterile cages under standard conditions (24 °C, 60% relative humidity, 12-h light/dark cycles) and provided with water and food ad libitum. MDA-MB-231 cells (1 × 10^6) were injected orthotopically in the fat pad of the second thoracic mammary glands (bilateral). Tumour dimensions were measured using a Vernier calliper, and tumour volume was calculated using the formula (x^2 y)/2 (x and y being the width and length, respectively) for an ellipsoid. At 8 weeks after MDA-MB-231 cell injection, tumours reached the target size of 200 mm^3. This study was performed according to national regulations and was approved by the Animal Experimentation Ethics Committee of the VU University Medical Center.
Dynamic PET imaging was performed using dedicated small animal NanoPET/CT and NanoPET/MR scanners (Mediso Ltd., Hungary, Budapest) with identical PET components. Mice (n = 4 per group) were anaesthetized with 4 and 2% isoflurane in 1 L · min^−1 oxygen for induction and maintenance, respectively. Mice were positioned on the scanner bed, and the respiratory rate was monitored for the duration of the scan, adjusting anaesthesia when required. A dynamic PET scan was acquired immediately after intravenous (i.v.) administration (tail vein) of 5 MBq [^11C]1 or [^18F]2. For blocking experiments, mice were injected subcutaneously with ERW1041E (50 mg · kg^−1) dissolved in 20% dimethylsulfoxide in 0.9% saline, 30 min prior to the tracer injection. An additional blocking experiment was performed by co-administration of compound 2 (50 μg, 75 nmol) and [^18F]2, which corresponded with a molar activity of 0.07 GBq · μmol^−1. PET scans were acquired in list mode and rebinned into the following frame sequence: 4 × 5, 4 × 10, 2 × 30, 3 × 60, 2 × 300, 1 × 600, 1 × 900 and 1 × 1200 s. In addition, a static [^18F]2-fluoro-2-deoxy-D-glucose ([^18F]FDG) scan was acquired for 30 min immediately after [^18F]FDG administration (10 MBq, tail vein). At least a 24-h time interval between [^18F]FDG scans and [^11C]1 or [^18F]2 scans was maintained. Reconstruction was performed with a fully 3-dimensional (3D) reconstruction algorithm using four iterations and six subsets, resulting in an isotropic 0.4-mm voxel dimension. Images were analysed using the freely available AMIDE-software version 1.0.4 (retrieved from https://sourceforge.net/projects/amide/files/amide/1.0.4). Regions of interest (ROIs) were drawn around the tumour tissue and leg muscle. Results are expressed as percentage injected dose per gram (%ID/g). Error bars indicate standard deviation. After PET scanning experiments, animals were sacrificed by cervical dislocation, tumours were isolated, and stored at − 80 °C until further use.

A short description of data set [4]: Plasma metabolite analysis after i.v. administration in SCID mice. It counts as in vivo. Particulars: mouse plasma. On the procedure:
Healthy female SCID mice (20–25 g, Harlan, Horst, The Netherlands) were injected in the tail vein with [^11C]1 or [^18F]2 (20 MBq) under isoflurane anaesthesia (2% in O2 at 1 L · min^−1). Mice were sacrificed at 15 and 45 min post injection (n = 3 for each time-point) by cervical dislocation. Blood (~ 0.5–1 mL) was withdrawn by heart puncture, collected in a heparin-coated tube and centrifuged at 5000 RPM to separate plasma from blood cells. Solid phase extraction (SPE) cartridges (tC18, Waters, Milford, MA, USA) were preconditioned by washing with methanol (MeOH, 6 mL) and H2O (two times 6 mL). Plasma (~ 0.2 mL) was mixed with 0.15 M HCl (0.2 mL) and loaded on the tC18 cartridge. The polar fraction was obtained by elution of the cartridge with H2O (3 mL), the non-polar fraction by subsequent elution with MeOH (1.5 mL) and H2O (0.5 mL). Both fractions were counted for radioactivity in a gamma counter. The percentage of intact tracer in the non-polar fraction was determined by online and offline HPLC analysis (Gemini C18 column (5 μm, 10 mm × 250 mm, Phenomenex, Torrance, CA, USA) with eluent MeCN (A) and 0.1% TFA acid in H2O (B) as eluent according to the following schemes; For [^11C]1: 0 min, 70% B at 0.25 mL · min^−1; 0.5 min, 70% B at 3.5 mL · min^−1; 9.0 min, 10% B at 3.5 mL · min^−1; 12.0 min, 10% B at 3.5 mL · min^−1; 12.5 min, 70% B at 3.5 mL · min^−1; 14.5 min, 70% B at 3.5 mL · min^−1 and 15 min, 70% B at 0.25 mL · min^−1 or for [^18F]2: 0 min, 80% B at 0.25 mL · min^−1; 0.5 min, 80% B at 3 mL · min^−1; 6.0 min, 30% B at 3 mL · min^−1; 12.0 min, 30% B at 3 mL · min^−1; 12.5 min, 80% B at 3.0 mL · min^−1; 14.5 min, 80% B at 3.0 mL · min^−1; 15.0 min, 80% B at 0.25 mL · min^−1 (Rt = 11.5 min). Offline HPLC analysis was performed when the online HPLC analysis yielded a low signal to noise ratio. For offline analysis, HPLC fractions (30 s per fraction) were collected and counted for radioactivity (WIZARD 2480 Compugamma, PerkinElmer, Waltham, MA, USA). The counting results were plotted to generate the corresponding HPLC chromatograms. Data were expressed as percentage of intact tracer, polar metabolites, and non-polar metabolites ± standard deviation.
To healthy SCID mice (n = 2) 10 MBq [^18F]2 diluted with 50 μg (2.5 mg · kg^−1) of unlabelled 2 was administered, corresponding to a molar activity of 0.14 GBq · μmol^−1. At 30 min post injection, animals were sacrificed under isoflurane anaesthesia (2% in O2 at 1 L · min^−1) by cervical dislocation. Blood (~ 1 mL) was collected by heart puncture. Blood plasma was separated using a SPE procedure as described in the “Metabolite analysis” section (vide supra). The non-polar fraction was analysed by HPLC and Liquid chromatography–tandem mass spectrometry (LC-MS/MS) in multiple reaction monitoring (MRM) mode. […]

The subject of data set [5] is TG2. More on the design: method as in PMID 27067043, PMID 27837727. Particulars: TG2 inhibition; cited from earlier work.
The conditions of data set [6]: cited from earlier work; for Intact (%) / Non-polar (%) / Polar (%): rat plasma.
Data set [7] concerns MDA-MB-231 tumour sections. Further details: method as in PMID 27067043, PMID 27837727. Particulars: cited from earlier work.
In data set [8] the test system is activated FXIII. More on the design: method as in PMID 27067043, PMID 27837727. Particulars: cited from earlier work.
Setting [9] is: 15 min after i.v., % of total blood plasma activity ± SD.
The mark [10] stands for this setting: animals sacrificed at 60 min post injection (listed under 45 min).

Broadly, the Ki is a measure of affinity in units of concentration, obtained from inhibition or displacement. The term IC50 denotes the point on the concentration scale where inhibition reaches its midpoint.

Regarding `O=C(NC[C@@H]1CC(Br)=NO1)[C@@H]1CCCN1C(=O)OCc1cnc2ccccc2c1` [ERW1041E, Quinolin-3-ylmethyl (S)-2-((((S)-3-bromo-4,5-dihydroisoxazol-5-yl)methyl)carbamoyl)pyrrolidine-1-carboxylate], the “Inhibition of TG2 activity in mouse model of pulmonary hypertension” value in data set [1] (50 mg/kg) is recorded as “inhibition of TG2 activity to background levels”. Besides, the “Reduction of TG2 activity in pulmonary hypertension model” value in data set [1] (30 min after administration) was “factor of four”. In addition, the “Time of maximum TG2 inhibitory effect after administration” value in data set [1] is 30 min. For the same compound, the Ki in data set [2] was 11 µM.

For the compound `C=C[11C](=O)NCCCC[C@H](NC(=O)Cc1ccccc1)C(=O)N1CCN(c2cccc(C)n2)CC1` [[^11C]1, (S)-N-(6-(4-(6-methylpyridin-2-yl)piperazin-1-yl)-6-oxo-5-(2-phenylacetamido)hexyl)[^11C]acrylamide], in data set [3] (ERW1041E 50 mg/kg s.c. 30 min prior to tracer), the “Effect of ERW1041E pretreatment on tumour activity” value was “significant increase in tumour activity”. Also, in data set [3] (baseline), the “Time of peak tumour uptake after injection” value lay within 5 to 10 min. In addition, in data set [3] (baseline, 40–60 min p.i., 5 MBq i.v.), the Tumour uptake entry is given as “approx. 0.5 %ID/g”. The “Intact (%)” value was 56 ± 14% in data set [4] (setting [9]); 24% and 24 ± 1% in data set [4] (45 min after i.v.); 65 ± 7% in data set [6] (15 min after i.v.); 29 ± 11% in data set [6] (45 min after i.v.). Further, the IC50 in data set [5] is 0.053 µM. In addition, the “Non-polar (%)” value in data set [6] (15 min after i.v.) is given as 13 ± 4%; in data set [6] (45 min after i.v.), 6 ± 3%. The “Polar (%)” value in data set [6] (15 min after i.v.) is 21 ± 3%; in data set [6] (45 min after i.v.), 65 ± 12%. Further, the “Binding to MDA-MB-231 tumour sections (in vitro autoradiography)” value in data set [7] was “specific and selective binding”. Moreover, the “Affinity for activated FXIII” value in data set [8] is on record as “no affinity”.

As for `COC(=O)[C@H](CC(C)C)NC(=O)[C@@H]1CCCN1C(=O)[C@@H](NC(=O)[C@H](CCC(=O)C=[N+]=[N-])NC(=O)CO/N=C/c1ccc([18F])cc1)C(C)C` [[^18F]2, (S)-methyl 2-((S)-1-((7S,10S,E)-7-(4-diazo-3-oxobutyl)-1-(4-[^18F]fluorophenyl)-10-isopropyl-5,8-dioxo-3-oxa-2,6,9-triazaundec-1-en-11-oyl)pyrrolidine-2-carboxamido)-4-methylpentanoate], in data set [3] (ERW1041E 50 mg/kg s.c. 30 min prior to tracer, 40–60 min, p = 0.06 vs baseline), the “Tumour activity after pretreatment with ERW1041E” value is reported as 1.4 %ID/g. Moreover, in data set [3] (baseline, 40–60 min time-frame), the “Background (muscle, right femur) activity” value was found to be 0.8 %ID/g. In addition, the “Tumour activity with co-administered unlabelled 2” value in data set [3] (self-blocking, 2 (50 μg, 75 nmol) co-administered, 40–60 min, p = 0.007) is “approximately 1.0 %ID/g”. Further, the “Intact (%)” value is recorded as 20 ± 1% in data set [4] (setting [9]), 3 ± 2% in data set [4] (45 min after i.v.), 1 ± 1% in data set [6] (15 min after i.v.) and 0 ± 0 % in data set [6] (setting [10]). In addition, the half-maximal inhibitory concentration (IC50) in data set [5] was 0.104 µM. Further, the “Metabolism in vivo” value in data set [6] (15 min post injection) is on record as “completely metabolised”. The “Non-polar (%)” value in data set [6] (15 min after i.v.) is 98 ± 1%; in data set [6] (setting [10]), 92 ± 3 %. Also, the results for the “Polar (%)” value in data set [6] (15 min after i.v.) and in data set [6] (setting [10]) were 2 ± 0% and 8 ± 3 %, respectively. Also, in data set [7], the “Binding to MDA-MB-231 tumour sections (in vitro autoradiography)” value is “specific and selective binding”. Further, in data set [8], the “Affinity for activated FXIII” value is reported as “no affinity”.

With `CC(C)C[C@H](NC(=O)[C@@H]1CCCN1C(=O)[C@@H](NC(=O)[C@H](CCC(=O)C=[N+]=[N-])NC(=O)CO/N=C/c1ccc([18F])cc1)C(C)C)C(=O)O` [[^18F]M1], the IC50 in data set [5] is 0.045 µM.
